Data set [1] concerns IMCSzyme™ (recombinant glucuronidase). The data set can be described thus: IMCSzyme hydrolysis of opiate glucuronides. The data set is classed as biochemical. The conditions noted are these: for Cleavage in the presence of the IMCSzyme (in words): compared with planar THCA-glucuronide.
The test system is the same in data set [2]. The data set is classed as biochemical.
Data set [3] shares this test system. The data set can be described thus: IMCSzyme hydrolysis of THCA glucuronide with and without water miscible organic media. The data set is classed as biochemical. On the procedure: To a 10 mL volumetric flask add 5 mL of 0.2M Sodium Phosphate buffer pH 7.5. Then add 1.0 mL of IMCS enzyme. QS to the line with 0.2M phosphate buffer, cap and invert several times to mix well. Final enzyme concentration is 5000 U.
To a 10 mL volumetric flask add 6 mL of 50/50 ACN/MeOH. Add […] of THCA D9 100 μg/mL. Then add 1.0 mL of IMCS enzyme stock (>5000 U). QS to the line with 0.2M sodium phosphate buffer. Final enzyme concentration is 5000 U.
In a 10 mL volumetric flask add 6 mL of 50/50 ACN/MeOH. Add 25 μL of THCA D9 (100 μg/mL). QS to the line with DI water, cap and invert several times to mix well. Concentration of IS will be 250 ng/mL.
(§1) To a 10 mL volumetric flask add 1 mL ACN. Add 18.5 μL of 10 μg/mL THCA Glucuronide working solution adjusted to allow quantitation of THCA at 18.5 ng/mL post hydrolysis. QS to line with NHU.
Pipet 50 μL sample into a 750 μL autosampler vial. Pipet 50 μL of prepared enzyme into vial (this will yield 500 U in final 500 μL volume) and wait 5, 10, 15, and 20 minutes. Then pipet 400 μL of THCA D9 IS into the vial. Vortex and move to instrument.
Pipet 50 μL sample into a 750 μL, autosampler vial. Then pipet 450 μL, of Enzyme Stock Solution With Organic (see above) into vial. Wait 5, 10, 15, and 20 minutes. Vortex and move to instrument.

Data set [4] deals with Red Abalone beta-glucuronidase (Kura Biotec). Kind of data set: Red Abalone beta-glucuronidase hydrolysis of THCA glucuronide. The data set is classed as biochemical. The note with it: for Enzyme + Organic Solvent(s) (% Hydrolysis) / Enzyme (% Hydrolysis): 65° C.; for Enzyme + Organic Solvent(s) (% Hydrolysis): ACN/MeOH; for Enzyme (% Hydrolysis): without organic. The procedure: To a 10 mL volumetric flask add 5 mL of DI water. Then add 1.0 mL of Kura Biotec enzyme. QS to the line with DI water, cap and invert several times to mix well. Final enzyme concentration is 5000 U.
In a 10 mL volumetric flask add 6 mL of 50/50 ACN/MeOH. Add 25 μL of THCA D9 100 μg/mL. Then add 1.0 mL of IMCS enzyme. QS to the line with DI water. Final enzyme concentration is 5000 U.
To a 10 mL volumetric flask add 6 mL of 50/50 ACN/MeOH. Add 25 μL of THCA D9 (100 μg/mL). QS to the line with DI water, cap and invert several times to mix well. Concentration of IS will be 250 ng/mL.
as §1
(§2) Pipet 50 μL sample into a 750 μL autosampler vial. Pipet 50 μL of prepared enzyme into vial (this will yield 500 U in final 500 μL volume). Vortex and heat 15, 30, 45, and 60 minutes. Then pipet 400 μL of THCA D9 IS into vial. Vortex and move to instrument.
Pipet 50 μL sample into a 750 μL autosampler vial. Then pipet 450 μL of Enzyme Stock Solution With Organic (see above) into vial. Vortex and heat 15, 30, 45, and 60 minutes. Vortex and move to instrument.

The nature of data set [5]: Hydrolysis of THCA glucuronide at 65° C. with no enzyme. The class given is physicochemical. The note with it: for No Enzyme (% Hydrolysis): 65° C. On the procedure: as §1, §2
In the presence of enzyme, the THCA glucuronide is hydrolyzed completely by 15 min.

The structures appear in SMILES notation.

As for `CN1CC[C@]23c4c5ccc(O)c4O[C@H]2[C@@H](O[C@@H]2O[C@H](C(=O)O)[C@@H](O)[C@H](O)[C@H]2O)C=C[C@H]3[C@H]1C5` [Morphine-6-Glucuronide], the “Mean % Hydrolysis” value was 40.4% in data set [1] (55° C., 0 min); 67.9% in data set [1] (55° C., 15 min); 83.6% in data set [1] (55° C., 30 min); 95.9% in data set [1] (55° C., 45 min); 91.7% in data set [1] (55° C., 60 min); 40.4% in data set [1] (65° C., 0 min). The “Mean % Hydrolysis” value in data set [1] (65° C., 15 min) amounted to 71.2%; in data set [1] (65° C., 30 min), 88.3%; in data set [1] (65° C., 45 min), 98.5%; in data set [1] (65° C., 60 min) it was 97.9%. Moreover, the “Cleavage in the presence of the IMCSzyme (in words)” value in data set [1] is “take more time and heat to cleave”.

For the compound `COc1ccc2c3c1O[C@H]1[C@@H](O[C@@H]4O[C@H](C(=O)O)[C@@H](O)[C@H](O)[C@H]4O)C=C[C@H]4[C@@H](C2)N(C)CC[C@@]341` [Codeine Glucuronide], the “Mean % Hydrolysis” value was found to be 15.7% in data set [1] (55° C., 0 min); 40.2% in data set [1] (55° C., 15 min); 65.6% in data set [1] (55° C., 30 min); 76.6% in data set [1] (55° C., 45 min); 81.8% in data set [1] (55° C., 60 min); 15.7% in data set [1] (65° C., 0 min). For the same compound, the “Mean % Hydrolysis” value was 42.7% in data set [1] (65° C., 15 min); 64.1% in data set [1] (65° C., 30 min); 75.5% in data set [1] (65° C., 45 min); 79.8% in data set [1] (65° C., 60 min). In data set [1], the “Cleavage in the presence of the IMCSzyme (in words)” value was “take more time and heat to cleave”.

Take `CN1CC[C@]23c4c5ccc(O[C@@H]6O[C@H](C(=O)O)[C@@H](O)[C@H](O)[C@H]6O)c4O[C@H]2C(=O)CC[C@H]3[C@H]1C5` [Hydromorphone Glucuronide]: the “Mean % Hydrolysis” value is on record as 58.5% in data set [1] (55° C., 0 min); 80.5% in data set [1] (55° C., 15 min); 91.1% in data set [1] (55° C., 30 min); 93.3% in data set [1] (55° C., 45 min); 93.8% in data set [1] (55° C., 60 min); 58.5% in data set [1] (65° C., 0 min). Moreover, the “Mean % Hydrolysis” value in data set [1] (65° C., 15 min) came out at 77.1%; in data set [1] (65° C., 30 min), 89.4%; in data set [1] (65° C., 45 min), 91.0%; in data set [1] (65° C., 60 min) it was 91.5%.

As to `CO[C@]12CC[C@@]3(C[C@@H]1[C@](C)(O)C(C)(C)C)[C@H]1Cc4ccc(O[C@@H]5O[C@H](C(=O)O)[C@@H](O)[C@H](O)[C@H]5O)c5c4[C@@]3(CCN1CC1CC1)[C@H]2O5` [Buprenorphine Glucuronide], the “Cleavage by the recombinant enzyme (in words)” value in data set [2] was “rapidly cleaves”.

As for `CN1CC[C@]23c4c5ccc(O[C@@H]6O[C@H](C(=O)O)[C@@H](O)[C@H](O)[C@H]6O)c4O[C@H]2[C@@H](O)C=C[C@H]3[C@H]1C5` [Morphine-3-Glucuronide], the “Mean % Hydrolysis” value in data set [1] (55° C., 0 min) was 99.5%; in data set [1] (55° C., 15 min) it was 99.1%; in data set [1] (55° C., 30 min), 99.1%; in data set [1] (55° C., 45 min), 97.4%; in data set [1] (55° C., 60 min) it was 99.9%; in data set [1] (65° C., 0 min) it was 99.5%. The “Mean % Hydrolysis” value came to 95.9% in data set [1] (65° C., 15 min); 95.8% in data set [1] (65° C., 30 min); 97.9% in data set [1] (65° C., 45 min); 97.6% in data set [1] (65° C., 60 min).

On to `CCCCCc1cc(O)c2c(c1)OC(C)(C)C1CCC(C(=O)OC3OC(C(=O)O)C(O)C(O)C3O)=CC21` (centres unmarked) [THCA Glucuronide], for which the “Mean % Hydrolysis” value in data set [3] (Enzyme added and incubated, then organic media added, 5 min at 55° C.) is 89.2%; in data set [3] (Enzyme added and incubated, then organic media added, 5 min at 65° C.) it was 90.1%; in data set [3] (Enzyme and organic media added at same time, 5 min at Room Temp) it was 110.2%; in data set [3] (Enzyme and organic media added at same time, 10 min at Room Temp) it was 101.7%; in data set [3] (Enzyme and organic media added at same time, 15 min at Room Temp), 104.9%. Moreover, in data set [3] (room temperature, time to fill the 96-well plate (~15 min using robotics)), the “Recombinant enzyme hydrolysis (in words)” value is “complete”. Besides, the “Enzyme + Organic Solvent(s) (% Hydrolysis)” value is on record as 121% in data set [4] (15 min), 130% in data set [4] (30 min), 134% in data set [4] (45 min) and 136% in data set [4] (60 min). Further, the “Enzyme (% Hydrolysis)” value in data set [4] (15 min) is 104%; in data set [4] (30 min), 97%; in data set [4] (45 min) it was 102%; in data set [4] (60 min), 101%. The compound further gave a Hydrolysis in data set [4] (enzyme and 60% water miscible solvent, as early as 15 min) of 100%. Besides, the “Time by which hydrolyzed completely” value in data set [4] (in the presence of enzyme) is recorded as at most 15 min. Also, the “No Enzyme (% Hydrolysis)” value in data set [5] (15 min), in data set [5] (30 min), in data set [5] (45 min) and in data set [5] (60 min) was 0.03% throughout. The “Hydrolysis in the absence of enzyme (in words)” value in data set [5] (elevated temperature) is recorded as “no hydrolysis”.

For `CN1CC[C@]23c4c5ccc(O[C@@H]6O[C@H](C(=O)O)[C@@H](O)[C@H](O)[C@H]6O)c4O[C@H]2C(=O)CC[C@@]3(O)[C@H]1C5` [Oxymorphone Glucuronide], the “Mean % Hydrolysis” value in data set [1] (55° C., 0 min) was 43.6%; in data set [1] (55° C., 15 min), 71.7%; in data set [1] (55° C., 30 min), 90.5%; in data set [1] (55° C., 45 min) it was 97.0%; in data set [1] (55° C., 60 min) it was 101.2%; in data set [1] (65° C., 0 min) it was 43.6%. Also, the “Mean % Hydrolysis” value in data set [1] (65° C., 15 min) is reported as 76.2%; in data set [1] (65° C., 30 min), 89.7%; in data set [1] (65° C., 45 min), 95.6%; in data set [1] (65° C., 60 min), 100.0%.
